Tests used:
[1] = Inhibition of rat brain cortical membrane GABA alpha receptor by TBPS binding assay; format: cell membranes, Cortex
[2] = AUC (0 to infinity) in human at 30 mg administered as formulated fasted capsules; format: ADME; parameters: dose 30 mg; settings: in vivo, po
[3] = AUC (0 to t) in human at 30 mg administered as formulated fasted capsules; format: ADME; parameters: dose 30 mg; settings: in vivo, po
[4] = Cmax in human at 30 mg administered as formulated fasted capsules; format: ADME; parameters: dose 30 mg; settings: in vivo, po
[5] = Cmax in human at 30 mg administered as formulated fed (high-fat meal) capsules; format: ADME; parameters: dose 30 mg; settings: in vivo, po
[6] = AUC (0 to infinity) in human at 30 mg administered as formulated fed (high-fat meal) capsules; format: ADME; parameters: dose 30 mg; settings: in vivo, po
[7] = AUC (0 to t) in human at 30 mg administered as formulated fed (high-fat meal) capsules; format: ADME; parameters: dose 30 mg; settings: in vivo, po

Structure (SMILES)	IC50 [1] [nM]	other results
CC(=O)[C@H]1CC[C@H]2[C@@H]3CC[C@H]4C[C@](C)(O)CC[C@@H]4[C@H]3CC[C@]12C	93	
CC(=O)[C@H]1CC[C@H]2[C@@H]3CC[C@@H]4C[C@@](O)(C(F)F)CC[C@@H]4[C@H]3CC[C@]12C	33	
C[C@@]1(O)CC[C@H]2[C@H](CC[C@@H]3[C@@H]2CC[C@]2(C)[C@@H](C(=O)CO)CC[C@@H]32)C1	86	AUC(0-inf) [2]: 640 ng·h/mL; AUC(0-t) [3]: 530 ng·h/mL; Cmax [4]: 21.8 ng/mL; Cmax [5]: 63.1 ng/mL; AUC(0-inf) [6]: 1010 ng·h/mL; AUC(0-t) [7]: 838 ng·h/mL
COC[C@@]1(O)CC[C@H]2[C@H](CC[C@@H]3[C@@H]2CC[C@]2(C)[C@@H](C(C)=O)CC[C@@H]32)C1	41	
COC[C@@]1(O)CC[C@H]2[C@@H](CC[C@@H]3[C@@H]2CC[C@]2(C)[C@@H](C(=O)CO)CC[C@@H]32)C1	94	
COC[C@@]1(O)CC[C@H]2[C@H](CC[C@@H]3[C@@H]2CC[C@]2(C)[C@@H](C(=O)CO)CC[C@@H]32)C1	170	

Reference: ChEMBL document CHEMBL5365549, “Neurosteroids and Postpartum Depression: The Mechanism, Efficacy, and Approval of Brexanolone and Zurzuvae” (ACS Med Chem Lett, 2023)
